{
  "source": "patent US11801256B2",
  "about": "“Antidepressant-psilocybin co-treatment to assist psychotherapy” (Universitätsspital Basel, priority 2021, dated 2023)",
  "key": {"[1]": {"assay": "Plasma drug concentrations and pharmacokinetic analyses", "assay_type": "in vivo, human", "details": "for concentration at 14 days: human, in vivo", "experimental": "The blood samples were immediately centrifuged, and the plasma was subsequently stored at −80° C. until analysis.\nThis allows to determine the concentrations of unconjugated psilocin and of psilocin glucuronide which corresponds to the difference between samples that were incubated with and without glucuronidase."}, "healthy subjects [2]": {"tested_on": "healthy subjects", "assay": "5 Dimensions of Altered States of Consciousness Scale (5D-ASC)", "assay_type": "in vivo, human", "details": "escitalopram 14 days pretreatment vs placebo", "excerpt": "(§1) Treatment order was random and counterbalanced.\n5-Dimensional Altered States of Consciousness (5D-ASC): The 5-dimensional Altered States of Consciousness (5D-ASC) Scale is a visual analog scale consisting of 94 items (Dittrich, 1998; Studerus et al., 2010). The instrument contains five main scales (FIG. 17) and 11 newer subscales (FIG. 18) assessing mood, anxiety, derealization, depersonalization, changes in perception, auditory alterations, and reduced vigilance. The scale is well-validated (Studerus et al., 2010). The total ASC score is the sum of the three main dimensions/scales Oceanic Boundlessness (OB), Anxious Ego Dissolution (AED) and Visionary Restructuralization (VR). There are two additional main scales measuring Auditory Alterations (AA) and Vigilance Reduction (VIR) (FIG. 17). The 5D-ASC scale was administered once at the end of the session and subjects were instructed to retrospectively rate peak alterations that have been experienced during the study session. Each item of the scale is scored on a 0-100 mm VAS. The attribution of the individual items to the subscales of the 5D-ASC was analyzed according to (Dittrich, 1998; Studerus et al., 2010) and as shown in FIG. 18. The scale was be administered once at the end of each test session."}, "healthy subjects [3]": {"tested_on": "healthy subjects", "assay": "Subjective effects, visual analog scales (VAS), clinical study", "assay_type": "in vivo, human", "experimental": "as §1\nStudy procedures: Subjects took part in a 2-hour screening session, two 9.5-hour test sessions where the psilocybin was administered and a 1-hour end-of-study visit. The subjects were informed about the study both verbally and by the approved written consent form regarding the altered state of consciousness, the study procedures and associated risks. The investigator and the subject both personally signed and dated the consent form as confirmation of consent. Subjects were screened using a semi-structured clinical interview for DSM-IV (Diagnostic and Statistical Manual Version 4) (Wittchen et al., 1997) to exclude those with a personal or family (first-degree relative) axis I major psychiatric disorder (acute or past) or a history of illicit drug dependence. Axis I major psychiatric disorders included also addiction disorders. The sessions were conducted in a calm standard hospital room. Only one research subject and one investigator were present during the test sessions. The test sessions began at 9 AM. The subjects then underwent baseline measurements. […] Psilocybin was administered at 11:00 AM. The outcome measures were repeatedly assessed for 7 hours. The subjects were under constant supervision by an investigator until 6 PM. Thus, the subjects were never alone during the 7 hours after drug administration. The subjects were sent home at 6:30 PM.\nSubjective Effects Questionnaire (Visual Analog Scales, VAS): VAS was repeatedly used to assess subjective alterations in consciousness over time. Single scales were presented as 100 mm horizontal lines marked with “not at all” on the left and “extremely” on the right. The following VAS items were used: “any drug effect”, “good drug effect”, “bad drug effect”, “drug liking”, “drug high”, “stimulated”, “fear”, “happy”, “content”, “trust”, “talkative”, “perception of time”, “open”, “concentration”, “speed of thinking”, “feeling close to others”, “wanting to be hugged”, “wanting to hug someone”, “desire to be alone”, “desire to be with others”, and “ego dissolution”. The VASs were presented as 100-mm horizontal lines (0-100%), marked from “not at all” on the left to “extremely” on the right. Some VASs were bidirectional (±50%). Marked from “not at all” on the left (−50), to “normal” in the middle (0), to “extremely” on the right (+50).\n(§2) The criterion for significance was p<0.05."}, "healthy subjects [4]": {"tested_on": "healthy subjects", "assay": "Adverse effects (list of complaints) and adverse events", "assay_type": "in vivo, human", "experimental": "as §1\nAdverse effects (list of complaints): The list of complaints (LC) consists of 66 items offering a global score measuring physical and general discomfort (Zerssen, 1976). This scale yields a total adverse effects score and reliably measures physical and general discomfort. The LC list was administered 7 hours after administration of the drug with reference to complaints throughout the entire session."}, "healthy subjects [5]": {"tested_on": "healthy subjects", "assay": "Adjective Mood Rating Scale (AMRS)", "assay_type": "in vivo, human", "details": "escitalopram 14 days pretreatment vs placebo; P=0.007", "experimental": "as §1\nThe 60-item Adjective Mood Rating Scale (AMRS) (Janke & Debus, 1978) was administered before and 2, 3, 5, and 7 hours after psilocybin administration.\nas §2"}, "healthy subjects [6]": {"tested_on": "healthy subjects", "assay": "Mystical Experience Questionnaire (MEQ30, MEQ43)", "assay_type": "in vivo, human", "details": "escitalopram 14 days pretreatment vs placebo; P=0.001", "experimental": "as §1\nMystical experiences were assessed using the German version (Liechti et al., 2017) of the 100-item States of Consciousness Questionnaire (SOCQ) (Griffiths et al., 2006) that includes the 43-item and newer 30-item MEQ (MEQ43 (Griffiths et al., 2006) and MEQ30 (Barrett et al., 2015)). The scale was be administered once at the end of each test session."}, "2D6": {"target": "2D6 (Homo sapiens, UniProt P10635)", "sequence (P10635 whole entry)": "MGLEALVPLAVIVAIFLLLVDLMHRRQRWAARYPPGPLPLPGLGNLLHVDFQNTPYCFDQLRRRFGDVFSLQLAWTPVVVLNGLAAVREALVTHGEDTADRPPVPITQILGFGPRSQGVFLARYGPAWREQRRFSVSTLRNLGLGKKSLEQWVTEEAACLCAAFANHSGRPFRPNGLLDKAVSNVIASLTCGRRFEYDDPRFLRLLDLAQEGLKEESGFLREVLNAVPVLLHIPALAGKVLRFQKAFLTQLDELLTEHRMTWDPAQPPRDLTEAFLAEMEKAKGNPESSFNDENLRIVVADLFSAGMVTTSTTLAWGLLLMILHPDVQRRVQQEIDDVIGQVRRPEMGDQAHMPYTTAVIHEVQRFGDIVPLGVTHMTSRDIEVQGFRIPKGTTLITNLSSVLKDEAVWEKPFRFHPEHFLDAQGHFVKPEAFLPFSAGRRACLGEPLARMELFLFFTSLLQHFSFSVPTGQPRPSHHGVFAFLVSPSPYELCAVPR", "details": "FDA, 2017; Swissmedic, 2020; cited from earlier work"}, "CYP2C19": {"target": "CYP2C19 (Homo sapiens, UniProt P33261)", "sequence (P33261 whole entry)": "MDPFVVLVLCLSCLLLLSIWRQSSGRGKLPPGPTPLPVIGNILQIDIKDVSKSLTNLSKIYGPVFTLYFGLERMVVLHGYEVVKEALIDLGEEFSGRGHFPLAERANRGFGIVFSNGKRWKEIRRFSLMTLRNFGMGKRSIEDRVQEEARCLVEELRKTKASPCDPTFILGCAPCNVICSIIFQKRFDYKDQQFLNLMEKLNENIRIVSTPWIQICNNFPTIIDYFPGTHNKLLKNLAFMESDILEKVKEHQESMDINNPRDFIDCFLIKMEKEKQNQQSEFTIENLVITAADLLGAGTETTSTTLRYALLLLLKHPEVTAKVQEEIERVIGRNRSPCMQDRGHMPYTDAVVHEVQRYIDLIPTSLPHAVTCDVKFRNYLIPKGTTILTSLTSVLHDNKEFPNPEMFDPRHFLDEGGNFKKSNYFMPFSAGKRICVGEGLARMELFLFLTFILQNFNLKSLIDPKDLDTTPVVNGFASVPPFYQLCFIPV", "details": "FDA, 2017; Swissmedic, 2020; cited from earlier work"}, "[7]": {"details": "escitalopram 14 days pretreatment vs placebo"}, "[8]": {"details": "escitalopram 14 days pretreatment vs placebo, P=0.004"}, "[9]": {"details": "escitalopram pretreatment compared with placebo pretreatment (summary)"}, "[10]": {"details": "any time during escitalopram pretreatment"}},
  "note": "Where two headings read alike, the source gives them in different places.",
  "data": [
    {"molecule": "CN(C)CCC[C@@]1(c2ccc(F)cc2)OCc2cc(C#N)ccc21", "note": "[Escitalopram, escitalopram]", "values": [
      {"measurement": "peak plasma concentrations (mean, range)", "setting": "[1]; after 14 days escitalopram (10 mg 7 days, 20 mg 7 days)", "value": "41 (35-53) ng/mL"},
      {"measurement": "effect on the pharmacokinetics of 4-HIAA", "setting": "[1]; [7]", "value": "did not relevantly or significantly alter"},
      {"measurement": "effect on the pharmacokinetics of psilocin", "setting": "[1]; [7]", "value": "did not relevantly or significantly alter"},
      {"measurement": "effect on the pharmacokinetics of psilocin glucuronide", "setting": "[1]; [7]", "value": "did not relevantly or significantly alter"},
      {"measurement": "concentration at 14 days", "setting": "[1]; after 14 days escitalopram (10 mg 7 days, 20 mg 7 days), read-out: plasma concentrations (mean, range)", "value": 41, "unit": "ng/mL"},
      {"measurement": "concentration at 14 days", "setting": "[1]; after 14 days escitalopram, described as high, read-out: plasma concentrations in all subjects", "value": "< 35", "unit": "ng/mL"},
      {"measurement": "effect on psilocybin-induced anxiety in the 5D-ASC", "setting": "healthy subjects [2]; P=0.026", "value": "significantly reduced"},
      {"measurement": "effect on psilocybin-induced anxious ego dissolution in the 5D-ASC", "setting": "healthy subjects [2]; P=0.029", "value": "significantly reduced"},
      {"measurement": "effect on good drug effects of psilocybin", "setting": "healthy subjects [3]; [7]", "value": "did not significantly reduce"},
      {"measurement": "reduction of peak anxiety induced by psilocybin", "setting": "healthy subjects [3]; [8]", "value": 50, "unit": "%"},
      {"measurement": "reduction of peak bad drug effects induced by psilocybin", "setting": "healthy subjects [3]; [8]", "value": 50, "unit": "%"},
      {"measurement": "effect on any drug effects in response to psilocybin", "setting": "healthy subjects [3]; escitalopram 14 days pretreatment vs placebo, P=0.015", "value": "slightly, but significantly reduced"},
      {"measurement": "effect on the response to psilocybin, overall", "setting": "healthy subjects [3]; escitalopram pretreatment 14 days (10 mg 7 days, 20 mg 7 days) before 25 mg psilocybin, compared to placebo pretreatment", "value": "only a small effect"},
      {"measurement": "effect on psilocybin-induced fear", "setting": "healthy subjects [3]; escitalopram pretreatment compared to psilocybin alone (summary)", "value": "reduced"},
      {"measurement": "effect on anxiety of psilocybin (in words)", "setting": "healthy subjects [3]; [9]", "value": "significantly reduced"},
      {"measurement": "effect on bad drug effects of psilocybin (in words)", "setting": "healthy subjects [3]; [9]", "value": "significantly reduced"},
      {"measurement": "effect on the positive mood effects of psilocybin", "setting": "healthy subjects [3]; [9]", "value": "no relevant effect"},
      {"measurement": "adverse events during pretreatment: bruxism", "setting": "healthy subjects [4]; [10]", "value": 2, "unit": "subjects"},
      {"measurement": "adverse events during pretreatment: decreased libido", "setting": "healthy subjects [4]; [10]", "value": 5, "unit": "subjects"},
      {"measurement": "adverse events during pretreatment: diarrhea", "setting": "healthy subjects [4]; [10]", "value": 2, "unit": "subjects"},
      {"measurement": "adverse events during pretreatment: difficulty concentrating", "setting": "healthy subjects [4]; [10]", "value": 1, "unit": "subjects"},
      {"measurement": "adverse events during pretreatment: dizziness", "setting": "healthy subjects [4]; [10]", "value": 2, "unit": "subjects"},
      {"measurement": "adverse events during pretreatment: dysorgasmia", "setting": "healthy subjects [4]; [10]", "value": 2, "unit": "subjects"},
      {"measurement": "adverse events during pretreatment: feeling depressed", "setting": "healthy subjects [4]; [10]", "value": 3, "unit": "subjects"},
      {"measurement": "adverse events during pretreatment: headache", "setting": "healthy subjects [4]; [10]", "value": 6, "unit": "subjects"},
      {"measurement": "adverse events during pretreatment: increased appetite", "setting": "healthy subjects [4]; [10]", "value": 2, "unit": "subjects"},
      {"measurement": "adverse events during pretreatment: insomnia", "setting": "healthy subjects [4]; [10]", "value": 2, "unit": "subjects"},
      {"measurement": "adverse events during pretreatment: loss of appetite", "setting": "healthy subjects [4]; [10]", "value": 3, "unit": "subjects"},
      {"measurement": "adverse events during pretreatment: nausea", "setting": "healthy subjects [4]; [10]", "value": "eight"},
      {"measurement": "adverse events during pretreatment: restless legs", "setting": "healthy subjects [4]; [10]", "value": 2, "unit": "subjects"},
      {"measurement": "adverse events during pretreatment: tiredness", "setting": "healthy subjects [4]; [10]", "value": 6, "unit": "subjects"},
      {"measurement": "adverse events during pretreatment: visual disturbance", "setting": "healthy subjects [4]; [10]", "value": 1, "unit": "subjects"},
      {"measurement": "effect on other adverse effects of psilocybin", "setting": "healthy subjects [4]; [9]", "value": "significantly reduced"},
      {"measurement": "severe adverse event (symptomatic vertebral disc hernia)", "setting": "healthy subjects [4]; participant on escitalopram pretreatment, five days, prior to psilocybin", "value": "one"},
      {"measurement": "effect on psilocybin-induced anxiety in the AMRS", "setting": "healthy subjects [5]", "value": "significantly reduced"},
      {"measurement": "effect on psilocybin-induced nadir effects in the MEQ43", "setting": "healthy subjects [6]", "value": "significantly reduced"},
      {"measurement": "inhibition of 2D6 function", "setting": "2D6", "value": "slightly inhibits"},
      {"measurement": "inhibition of CYP2C19 function", "setting": "CYP2C19", "value": "slightly inhibits"}
    ]}
  ]
}
